In US10130618B2, “Pharmaceutical combinations of dabigatran and proton pump inhibitors” (SANOVEL ILAC SANAYI VE TICARET ANONIM SIRKETI, priority 2014, dated 2018):

Legend:
[1] = DSC analysis of 1:1 API mixtures (compatibility with Dabigatran etexilate); format: physicochemical; conditions: for DSC peak temperature of the mixture (peak shifting) / Compatibility by DSC: 1:1 mixture with Dabigatran etexilate; for DSC peak temperature of the mixture (peak shifting): 10° C./min, 30° C. to 300° C.; for Compatibility by DSC: characteristic peaks not determined; for Pharmaceutical incompatibility (discussion of DSC): with Dabigatran etexilate
Method: (§1) DSC Analysis: DSC scan of about 2 mg using an automatic thermal analyzer system performed accurately weighed of APIs (Dabigatran etexilate, Dabigatran etexilate mesylate, Esomeprazole, Dexlansoprazole) of 1:1 in ratio respectively. DSC scans performed with 10° C. per minute heat flow from 30° C. to 300° C. The peak shifting of active ingredients was determined by DSC analysis.
(§2) Method Log: • 1: Pan Type: Aluminum hermetic • 2: Equilibrate at 30.00° C. • 3: Ramp 10.00 ° C./min to 300.00° C. • 4: End of method
(§3) Results (Thermograms): • FIG. 1. Thermogram of Dabigatran etexilate • FIG. 2. Thermogram of Dabigatran etexilate mesylate • FIG. 3. Thermogram of Esomeprazole • FIG. 4. Thermogram of Dexlansoprazole • FIG. 5. Thermogram of Dabigatran etexilate: Esomeprazole • FIG. 6. Thermogram of Dabigatran etexilate mesylate: Esomeprazole • FIG. 7. Thermogram of Dabigatran etexilate: Dexlansoprazole • FIG. 8. Thermogram of Dabigatran etexilate mesylate: Dexlansoprazole
(§4) Discussion: The characteristic degradation and melting peaks of active ingredients were not determined. It indicates pharmaceutical incompatibility of esomeprazole and dexlansoprazole with Dabigatran etexilate and Dabigatran etexilate mesylate.

[2] = DSC analysis of 1:1 API mixtures (compatibility with Dabigatran etexilate mesylate); format: physicochemical; conditions: for DSC peak temperature of the mixture (peak shifting) / Compatibility by DSC: 1:1 mixture with Dabigatran etexilate mesylate; for DSC peak temperature of the mixture (peak shifting): 10° C./min, 30° C. to 300° C.; for Compatibility by DSC: characteristic peaks not determined; for Pharmaceutical incompatibility (discussion of DSC): with Dabigatran etexilate mesylate
Method: as §1, §2, §3, §4

Row | DSC peak temperature of the mixture (peak shifting) [1] [°C] | Compatibility by DSC [1] | Pharmaceutical incompatibility (discussion of DSC) [1] | DSC peak temperature of the mixture (peak shifting) [2] [°C] | Compatibility by DSC [2] | Pharmaceutical incompatibility (discussion of DSC) [2] | SMILES
1 | 87 | incompatible. | incompatibility | 82 | incompatible. | incompatibility | Cc1c(OCC(F)(F)F)ccnc1C[S@@+]([O-])c1nc2ccccc2[nH]1 [Dexlansoprazole, (+)-2-[(R)-{[3-methyl-4-(2,2,2-trifluoroethoxy)pyridin-2-yl]methyl}sulfinyl]-1H-benzimidazole]
2 | 174 | incompatible. | incompatibility | 176 | incompatible. | incompatibility | COc1ccc2nc([S@@+]([O-])Cc3ncc(C)c(OC)c3C)[nH]c2c1 [Esomeprazole, (S)-5-methoxy-2-[(4-methoxy-3,5-dimethylpyridin-2-yl)methylsulfinyl]-3H-benzoimidazole]
